US20250034264A1, “REGULATING T CELL IMMUNE RESPONSE THROUGH IGF-I RECEPTOR (IGF-1R)” (The Regents of the University of Michigan, priority 2021, published 2025)

How the values were obtained:
Type in all cases: cell-based, human
CD34+ fibrocytes = test: MHC II, CD80, CD86, PD-L1 expression in cultured fibrocytes (RT-qPCR, flow cytometry)
Excerpt: Fibrocyte and T cell isolation and cultivation. Peripheral blood mononuclear cells (PBMCs) were obtained from the venous circulation of clinic patients with GD, TAO or from healthy donors after obtaining informed consent. PBMCs were also obtained from Red Cross donor plasmapheresis filters. They were isolated by Ficoll-Histopaque (Sigma-Aldrich, St. Louis, MO) density gradient centrifugation. Fibrocytes were cultivated as described (Bucala, R, et al., (1994) Mol Med 1, 71-81, incorporated herein by reference in its entirety) except that culture substrata remained uncoated with fibronectin, as previously described (Douglas, R. S., et al. (2010) The Journal of clinical endocrinology and metabolism 95, 430-438). Isolated PBMCs (1×10^6-1×107) were inoculated in six-well plates covered with DMEM containing 10% FBS and incubated in 10-14 days. Adherent monolayers (<5% of the starting population) were washed with PBS and detached using accutase (Millipore) treatment, or mechanical scraping following accutase treatment. Culture purity was routinely confirmed by FACS analysis to be >90% fibrocytes by confirming the CD31^−CD45^+CD34^+CXCR4^+Col I^+TSFR^high phenotype.
Invariably, a small population of tightly adherent T cells were found in the fibrocyte cultures, consistent with the previous findings. Culture viability was routinely verified to be >90%. CD4^+ T cells were enriched using the CD4 isolation cocktail (Cat #0.130-096-533, Miltenyi Biotec, San Diego, CA) followed by negative selection using a magnetic column (Cat #0.130-042-401) according to manufacturer's protocol. Fibrocytes and isolated T cells were cultured and remained untreated or were incubated with human IgG isotype control (5 μg/ml) or teprotumumab (50 μg/mL) for 7 to 9 days. Single cell suspensions were stained with anti-human CD4, CD3, CD34, MHC-2, CD80, CD86, and PD-L1 (BD Biosciences) for 30 min, rinsed and fixed with CytoPerm/CytoFix (BD). They were then stained with anti-human INFγ and IL-17A for 20 min, rinsed, and subjected to the flow cytometry analysis. Gated CD34^+CXCR4^+ fibrocytes and CD4^+CD3^+ T cells were analyzed using quadrant settings based on negative isotype staining.
In vitro studies of CD34^+ fibrocytes and T cells PBMC and GD-OF monolayers were treated in vitro with human IgG isotype control (5 μg/ml), teprotumumab (50 μg/mL), H7 (5 μg/mL), linsitinib (1 μM), bTSH (5 mIU/mL), M22 (1 μg/mL), or IGF-1 (10 nM) for the intervals indicted in the figure legends in a 37° C., 5% CO2, humidified incubator until confluent. Brefeldin A (0.66 μl/ml), (Golgi Stop™, BD Biosciences), phorbol 12-myristate 13-acetate (PMA) (50 ng/ml) and ionomycin (1 μg/mL) were added for 5 h. Cells were rinsed with flow cytometry buffer (1×PBS, 0.5% BSA, 0.1% sodium azide) and stained with the relevant monoclonal antibodies.
(§1) Real-time PCR Confluent fibrocyte and GD-OF cultures were incubated with bTSH (5 mIU/mL), teprotumumab (50 μg/mL) or linsitinib (1 μM) for the time intervals indicated, washed with PBS and RNA was extracted with the Aurum Total RNA Mini Kit (cat. #732-6820, Bio-Rad, Hercules, CA). Cellular RNA (2 μg) was reverse transcribed using QuantiTect Reverse Transcription kit (cat. #205314, Qiagen (Germantown, MD) and real-time PCR was performed using an Applied Biosystems instrument with QuantiTect SYBR Green PCR kit (cat. no. 204143; Qiagen, Frederick, MD). Primer sequences were as follows.

GD-OF [1] = test: IL-23p19 and IL-12p35 mRNA expression, real-time PCR; conditions: teprotumumab 50 μg/ml or linsitinib 1 μM, 7-9 d
Protocol: (§2) FIGS. 10A-10F are graphs showing the divergent effect of teprotumumab on bTSH induced IL-23p19 and IL-12p35 expression on fibrocytes and GD-OF. Rinsed fibrocyte and GD-OF monolayers were incubated with or without 50 μg/ml teprotumumab (FIGS. 10A and 10B) or 1 μM linsitinib (FIGS. 10C and 10D) and human Isotype IgG for 7-9 d, and bTSH (5 mIU/mL) was added for 6 h. Harvested RNA was reverse transcribed and isolated cDNA was subjected to quantitative real-time PCR for IL-23p19 and IL-12p35 mRNA levels. Values were normalized to their respective GAPDH levels and are expressed as the mean±SD of three independent determinations. Experiments were repeated three times. FIGS. 10E and 10F are graphs showing the levels of IL-23 protein when rinsed fibrocyte and GD-OF monolayers were incubated with or without 50 μg/ml teprotumumab. **, p<0.01; ***. P<0.001.
FIGS. 15A-15C are dose-response curves of teprotumumab effects on IL-6 expression/induction by bTSH (FIG. 15A); HAS2 expression/induction by bTSH (FIG. 15B); IL-12p35 expression/induction by bTSH (FIG. 15C). Following indicated treatments, cellular RNA was harvest from rinsed GD-OF cell layers, reversed transcribed and subjected to real-time PCR. Values were normalized to their respective GAPDH levels.
Graves' disease-orbital fibroblast (GD-OF) preparation and cultivtion GD-OF were isolated from orbital adipose/connective tissues removed during surgical orbital decompression surgery, as described ((Smith, T. J., et al., (2002) The Journal of clinical endocrinology and metabolism 87, 385-392). While the fraction of CD34^+ OF comprising GD-OF strains vary somewhat, the ratios of CD34^+/CD34^− OF are usually 50:50 in the early passages utilized in these studies (passages 2-11). Pure CD34^+ OF and CD34^− OF subsets were generated by staining for 30 m at 4° C. with fluorescein isothiocyanate-conjugated […] CD34 or its isotype control followed by cytometric cell sorting using a FACSAria III (BD Biosciences) instrument. Cells were sorted under sterile conditions into either CD34^+ OF, and CD34 OF subsets which were then re-cultured and treated without or with bTSH (5 mU/mL) or the other test compounds, as indicated, for 6 hrs, as indicated.
as §1

GD-OF [2] = test: HAS1 and HAS2 mRNA, real-time PCR; conditions: teprotumumab 50 μg/ml or linsitinib 1 μM, 7-9 d
Protocol: (§3) FIGS. 13A-13B are graphs showing the effect of teprotumumab on bTSH induced hyaluronan (HA) production in GD-OF (FIG. 13A) and fibrocytes (FIG. 13B). GD-OF were treated with or without teprotumumab (50 μg/ml) or human Isotype IgG (5 μg/ml) for 7-9 d and stimulated with bTSH (5 mIU/mL) for graded intervals indicated along the abscissa for 0 to 96h. Media were collected and subjected to HA ELISA. Values were normalized to respective cell layer protein levels and expressed as the mean±SD of three independent determinations. Experiments were repeated three times. FIGS. 13C-13F are graphs showing the divergent pattern of hyaluronan synthase (HAS) isoenzyme induction by bTSH in fibrocytes versus GD-OF and effects of teprotumumab (FIGS. 13C and 13D) and linsitinib (FIGS. 13E and 13F). Confluent monolayers of GD-OF and fibrocytes remained untreated or received teprotumumab (50 μg/ml) or linsitinib (1 μM) and human Isotype IgG for 7-9 d. Some cultures were treated with bTSH (5 mIU/mL) for 6h. Cellular RNA was harvested mRNA was reverse transcribed, and cDNA subjected to quantitative real-time PCR for HAS1 and HAS2. Values were normalized to their respective GAPDH levels and are expressed as the mean±SD of three independent determinations. Experiments were repeated three times. *, P<0.05; **, p<0.01; ***. P<0.001.
as §1

fibrocytes [3] = test: HAS1 and HAS2 mRNA, real-time PCR; conditions: teprotumumab 50 μg/ml or linsitinib 1 μM, 7-9 d
Protocol: as §3, §1

fibrocytes [4] = test: IL-23p19 and IL-12p35 mRNA expression, real-time PCR; conditions: teprotumumab 50 μg/ml or linsitinib 1 μM, 7-9 d
Protocol: as §2, §1

COc1ccc(C2Nc3ccccc3C(=O)N2Cc2ccco2)cc1COc1c(C)cc(NC(C)=O)cc1C (stereo not drawn) [ML224]
effect on MHC II, CD80, CD86, PD-L1 expression, teprotumumab compared with TSHR inhibitor ML224 (CD34+ fibrocytes; 9 d, single agents and in combination): effective

C[C@]1(O)C[C@@H](c2nc(-c3ccc4ccc(-c5ccccc5)nc4c3)c3c(N)nccn32)C1 [linsitinib]
IL-12p35 expression, basal and induction by bTSH (GD-OF [1]): increasing
IL-23p19 expression, basal and induction by bTSH (GD-OF [1]): decreasing
induction of MHC II, CD80, CD86, PD-L1 surface proteins (CD34+ fibrocytes; bTSH-treated fibrocytes): blocked
induction of MHC II, CD80, CD86, PD-L1 mRNA by bTSH and M22 (CD34+ fibrocytes; teprotumumab 50 μg/mL, 1H7 5 μg/mL, linsitinib 1 μM): blocked
HAS2 expression, single agent or in combination with bTSH (GD-OF [2]): nearly identical
basal and bTSH-provoked expression of HAS1 (GD-OF [2]): nearly identical
HAS2 expression, single agent or in combination with bTSH (fibrocytes [3]): nearly identical
basal and bTSH-provoked expression of HAS1 (fibrocytes [3]): nearly identical
IL-12p35 expression, basal and induction by bTSH (fibrocytes [4]): increasing
IL-23p19 expression, basal and induction by bTSH (fibrocytes [4]): decreasing

rhIGF-1: Recombinant Human IGF-1 (R & D systems)
induction of MHC II, CD80, CD86, PD-L1 surface proteins by the agent itself (CD34+ fibrocytes; M22 1 μg/mL (peak at 6 d), IGF-1 10 nM, compared with bTSH): considerably less robust
